Data as given in patent publication US7160897B2, “Therapeutic compounds” (SmithKline Beecham Corporation, priority 2000, dated 2007).

System: HSV-1
Assay: HSV-1 replication in Vero 76 cells, viral DNA hybridization capture assay
Format: cell-based, herpes simplex virus 1
Conditions: Human alphaherpesvirus 1; HSV-1 infected Vero 76 cells, MOI=0.001, 40–48 hours incubation, HSV DNA detected by hybridization/chemiluminescence
Protocol: Vero 76 cells were maintained in MEM with Earle's salts, L-glutamine, 8% FBS (Hyclone, A-1111-L) and 100 units/mL Penicillin-100 μg/mL Streptomycin. For assay conditions, FBS was reduced to 2%. Cells are seeded into 96-well tissue culture plates at a density of 5×10^4 cells/well after being incubated for 45 min at 37° C. in the presence of HSV-1 or HSV-2 (MOI=0.001). Test compounds are added to the wells and the plates are incubated at 37° C. for 40–48 hours. Cell lysates are prepared as follows: media was removed and replaced with 150 μL/well 0.2 N NaOH with 1% Igepal CA 630 or NP-40. Plates were incubated up to 14 days at room temperature in a humidified chamber to prevent evaporation.
For the detection probe, a gel-purified, digoxigenin-labeled, 710-bp PCR fragment of the HSV UL-15 sequence was utilized. PCR conditions included 0.5 μM primers, 180 μM dTTP, 20 μM dUTP-digoxigenin (Boehringer Mannheim 1558706), 200 μM each of dATP, dCTP, and dGTP, 1×PCR Buffer II (Perkin Elmer), 2.5 mM MgCl2, 0.025 units/μL of AmpliTaq Gold polymerase (Perkin Elmer), and 5 ng of gel-purified HSV DNA per 100 μL. Extension conditions were 10 min at 95° C., followed by 30 cycles of 95° C. for 1 min, 55° C. for 30 sec, and 72° C. for 2 min. The amplification was completed with a 10-min incubation at 72° C. Primers were selected to amplify a 728 bp probe spanning a section of the HSV1 UL15 open reading frame (nucleotides 249–977). Single-stranded transcripts were purified with Promega M13 Wizard kits. The final product was mixed 1:1 with a mixture of 6 M GuSCN, 100 mM EDTA and 200 μg/mL herring sperm DNA and stored at 4° C.
The capture DNA plasmid (HSV UL13 region in pUC) was linearized by cutting with Xba I, denatured for 15 min at 95° C. and diluted immediately into Reacti-Bind DNA Coating Solution (Pierce, 17250, diluted 1:1 with TE buffer, pH 8) at 1 ng/μL 75 μL/well were added to Corning (#3922 or 9690) white 96-well plates and incubated at room temperature for at least 4 hrs before washing twice with 300 μL/well 0.2×SSC/0.05% Tween-20 (SSC/T buffer). The plates were then incubated overnight at room temperature with 150 μL/well 0.2 N NaOH, 1% IGEPAL and 10 μg/mL herring sperm DNA.
Twenty-seven (27) μL of cell lysate was combined with 45 μL of hybridization solution (final concentration: 3M GuSCN, 50 mM EDTA, 100 μg/ml salmon sperm DNA, 5× Denhardt's solution, 0.25×APE, and 5 ng of the digoxigenin-labeled detection probe). APE is 1.5 M NH4-acetate, 0.15 M ammonium phosphate monobasic, and 5 mM EDTA adjusted to pH 6.0. Mineral oil (50 μL) was added to prevent evaporation. The hybridization plates were incubated at 95° C. for 10 minutes to denature the DNA, then incubated at 42° C. overnight The wells were washed 6× with 300 μL/well SSC/T buffer then incubated with 75 μL/well anti-digoxigenin-HRP-conjugated antibody (Boehringer Mannheim 1207733, 1:5000 in TE) for 30 min at room temperature. The wells were washed 6× with 300 μL/well with PBS/0.05% Tween-20 before 75 μL/well SuperSignal LBA substrate (Pierce) was added. The plates were incubated at room temperature for 30 minutes and chemiluminescence was measured in a Wallac Victor reader.
The following results were obtained for HSV-1.

SMILES	IC50
Fc1ccc(-c2nn3c(NC4CCCC4)cccc3c2-c2ccnc(Nc3ccccc3)n2)cc1 [Example 1, 3-(2-Anilino-4-pyrimidinyl)-N-cyclopentyl-2-(4-fluorophenyl)pyrazolo[1,5-α]pyridin-7-amine]	500 nM
COc1cc(Nc2nccc(-c3c(-c4ccc(F)cc4)nn4c(NC5CCCC5)cccc34)n2)cc(OC)c1OC [Example 2, N-Cyclopentyl-2-(4-fluorophenyl)-3-[2-(3,4,5-trimethoxyanilino)-4-pyrimidinyl]pyrazolo[1,5-α]pyridin-7-amine]	400 nM
COc1ccc(Nc2nccc(-c3c(-c4ccc(F)cc4)nn4c(NC5CCCC5)cccc34)n2)cc1 [Example 3, N-Cyclopentyl-2-(4-fluorophenyl)-3-[2-(4-methoxyanilino)-4-pyrimidinyl]pyrazolo[1,5-α]pyridin-7-amine]	1250 nM
Fc1ccc(Nc2nccc(-c3c(-c4ccc(F)cc4)nn4c(NC5CCCC5)cccc34)n2)cc1 [Example 4, N-Cyclopentyl-3-[2-(4-fluoroanilino)-4-pyrimidinyl]-2-(4-fluorophenyl)pyrazolo[1,5-α]pyridin-7-amine]	600 nM
COc1ccc(-c2nn3c(NC4CCCC4)cccc3c2-c2ccnc(Nc3cccc(C(=O)c4ccccc4)c3)n2)cc1 [Example 5, [3-({4-[7-(Cyclopentylamino)-2-(4-methoxyphenyl)pyrazolo[1,5-α]pyridin-3-yl]-2-pyrimidinyl}amino)phenyl](phenyl)methanone]	2800 nM
Fc1ccc(-c2nn3ccc(Cl)cc3c2-c2ccnc(Nc3ccccc3)n2)cc1 [Example 6, 4-[5-Chloro-2-(4-fluorophenyl)pyrazolo[1,5-α]pyridin-3-yl]-N-phenyl-2-pyrimidinamine]	14000 nM
Fc1ccc(-c2nn3ccc(NC4CCCC4)cc3c2-c2ccnc(Nc3ccccc3)n2)cc1 [Example 7, N-[3-(2-Anilino-4-pyrimidinyl)-2-(4-fluorophenyl)pyrazolo[1,5-α]pyridin-5-yl]-N-cyclopentylamine]	3300 nM
Fc1ccc(-c2nn3c(NC4CCCC4)cc(Cl)cc3c2-c2ccnc(Nc3ccccc3)n2)cc1 [Example 8, 3-(2-Anilino-4-pyrimidinyl)-5-chloro-N-cyclopentyl-2-(4-fluorophenyl)pyrazolo[1,5-α]pyridin-7-amine]	160 nM
CCSc1cc(Cl)cc2c(-c3ccnc(Nc4ccccc4)n3)c(-c3ccc(F)cc3)nn12 [Example 9, N-{4-[5-Chloro-7-(ethylsulfanyl)-2-(4-fluorophenyl)pyrazolo[1,5-α]pyridin-3-yl]-2-pyrimidinyl}-N-phenylamine]	2000 nM
COc1ccc(-c2nn3c(NC4CCCC4)cccc3c2-c2ccnc(Nc3cccc([N+](=O)[O-])c3)n2)cc1 [Example 10, N-Cyclopentyl-2-(4-methoxyphenyl)-3-[2-(3-nitroanilino)-4-pyrimidinyl]pyrazolo[1,5-α]pyridin-7-amine]	1000 nM
COc1ccc(-c2nn3c(NC4CCCC4)cccc3c2-c2ccnc(Nc3cccc(CO)c3)n2)cc1 [Example 11, [3-({4-[7-(Cyclopentylamino)-2-(4-methoxyphenyl)pyrazolo[1,5-α]pyridin-3-yl]-2-pyrimidinyl}amino)phenyl]methanol]	700 nM
COc1ccc(-c2nn3c(NC4CCCC4)cccc3c2-c2ccnc(Nc3cccc(N)c3)n2)cc1 [Example 12, N^1-{4-[7-(Cyclopentylamino)-2-(4-methoxyphenyl)pyrazolo[1,5-α]pyridin-3-yl]-2-pyrimidinyl}-1,3-benzenediamine]	700 nM
COc1ccc(-c2nn3c(NC4CCCC4)cccc3c2-c2ccnc(Nc3cccc(N=[N+]=[N-])c3)n2)cc1 [Example 13, 3-[2-(3-Azidoanilino)-4-pyrimidinyl]-N-cyclopentyl-2-(4-methoxyphenyl)pyrazolo[1,5-α]pyridin-7-amine]	800 nM
